Where no end group is shown, it is not given here.
Tests used:
P. aeruginosa ATCC 15442 = test: HMARQ biocidal kill activity; assay type: cell-based; details: P. aeruginosa ATCC 15442 (gram−)
In short: (§1)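 Inoculated sample matrix (200–300 μL) added to biocide in 96-well blocks alongside untreated controls; for kill-time runs organisms added after biocide. Viable counts by MPN serial 1:10 dilution in TSB with 50 μM resazurin indicator; values are ppm (μg/mL) giving 3.5 log kill versus untreated at 15 min or 24 h.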

Staph. aureus ATCC 6538 = test: HMARQ biocidal kill activity; assay type: cell-based; details: Staph. aureus ATCC 6538 (gram+)
In short: as §1

[1] = tested on: P. aeruginosa ATCC 15442 / Staph. aureus ATCC 6538; test: HMARQ biocidal testing; assay type: cell-based; details: summary of Table 6; peptides too small to span the membrane
Method: Biocide efficacy protocols were improved by reducing sample size, organizing the test material into an array format, implementing most probable number (MPN) quantitation and using multi-channel liquid handling equipment. We call the new method “high-throughput microanalysis and rapid quantitation” or “HMARQ.” HMARQ is directly applicable to current industrial efficacy tests such as multi-cycle preservation challenge or time course disinfection tests.
HMARQ is performed in a high throughput plate, such as 96-well microtiter plates. Typical sample volumes have been reduced down to 200 to 300 μL, but can be reduced further if desired. In these samples, no more than 10% of the total volume will be composed of the biocide and organism solution, and all non-matrix additions are normalized for all samples.
The sample matrix is first inoculated with the desired concentration of microorganisms. Inoculated sample matrix is then added to the 96-well assay block containing the biocide(s) under study. Each sample block contains biocide treated samples and untreated control samples (lacking biocide). Once the samples are prepared, the entire block of samples is mixed by vortexing until each sample is homogenous. In general, the study starts once mixing is complete, and samples are removed as required for the analysis. When Kill Time testing (rate of biocide activity) is performed, the microorganisms are added after biocide addition to the samples, allowing for rapid mixing and analysis.
Bacterial concentration (CFU/mL) is determined using the most probable number method (MPN). […] A serial 1:10 dilution will yield a bacterial concentration resolution of 1 log and the log reduction is determined by comparing the concentration of organisms in a treated sample to the concentration of organisms in untreated samples. […]
Using the HMARQ test described above, periodic peptides were generated and tested for Kill Activity. […] Units are expressed as ppm (μg/mL) needed for 3.5 log kill at 15 min or 24 hour and the results are shown below.

E. coli ATCC 2592 = details: ATCC 2592
P. aeruginosa ATCC 10145 = details: ATCC 10145
[2] = tested on: S. aureus (methicillin resistant) ATCC 33591; details: ATCC 33591
C. albicans 10231 = assay type: cell-based; details: 10231
In short: (§2)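 Broth microdilution per NCCLS, adapted for fungi with Sabouraud Dextrose Broth; KFAK-repeat peptide multimers in two-fold dilutions from 1,000 to 1 μg/ml. Growth by OD620 after overnight incubation; IC50 by sigmoidal fit, in duplicate, repeated at least twice.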

Cr. Neoformans 32045 = assay type: cell-based
In short: as §2

Red blood cell toxicity = assay type: cell-based; details: red blood cells (RBC); RBCs; concentration required for 50% toxicity; read-out: TX50
Red blood cells (RBC) = test: Red blood cell toxicity; assay type: cell-based
HeLa cell line = test: HeLa MTS cellular reduction toxicity assay; assay type: cell-based; details: for TX50: 24 h, MTS
In short: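 HeLa cells grown 48 h, then exposed to serial 2-fold peptide dilutions for 24 h at 37 °C, 5% CO2. MTS-PMS added for 1 h; absorbance at 490 nm compared with untreated cells. TX50 (50% toxicity concentration) from sigmoidal curve fit.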

Substance | ppm needed for 3.5 log kill at 15 min (P. aeruginosa ATCC 15442) | ppm needed for 3.5 log kill at 24 hr (P. aeruginosa ATCC 15442) | ppm needed for 3.5 log kill at 15 min (Staph. aureus ATCC 6538) | ppm needed for 3.5 log kill at 24 hr (Staph. aureus ATCC 6538) | biocidal activity (statement) [1] | IC50 (E. coli ATCC 2592) | MIC (E. coli ATCC 2592) | IC50 (P. aeruginosa ATCC 10145) | MIC (P. aeruginosa ATCC 10145) | IC50 [2] | MIC [2] | IC50 (C. albicans 10231) | MIC (C. albicans 10231) | IC50 (Cr. Neoformans 32045) | MIC (Cr. Neoformans 32045) | HC50 at 24 h (Red blood cell toxicity) | % kill at 250 μg/ml (Red blood cells (RBC)) | % kill at 500 μg/ml (HeLa cell line) | TX50 (HeLa cell line)
FKA FKA (FKAFKA; Periodic Peptide) [FKA(2)] | >500 ppm | 125 ppm | 16 ppm | 500 ppm | demonstrate biocidal activity |  |  |  |  |  |  |  |  |  |  |  |  |  | 
KFKKFKKFKKFKKFKKFKKFKKFKKFK [KFK (9), KFK KFK KFK KFK KFK KFK KFK KFK KFK] | >500 ppm | 63 ppm | >500 ppm | 500 ppm |  | 14 µg/mL | 16 to 32 µg/mL | 68 µg/mL | 125 µg/mL | 92 µg/mL | 125 to 250 µg/mL | 194 µg/mL | 250 to 500 µg/mL | 39 µg/mL | 62 to 125 µg/mL | > 500 µg/mL | −6% | 80.7% | >500 µg/mL
LKKLLKKLLKKLLKKLLKKLLKKL [LKKL (6), LKKL LKKL LKKL LKKL LKKL LKKL] | >500 ppm | 8 ppm | 4 ppm | 125 ppm |  | 31 µg/mL | 62 to 125 µg/mL | 58 µg/mL | 65 µg/mL | 98 µg/mL | >250 µg/mL | 213 µg/mL | 250 to 500 µg/mL | 93 µg/mL | >125 µg/mL | 11 µg/mL | 100% | −1.3% | 26 µg/mL
LKKLLKKLLKKLLKKLLKKLLKKLLKKLLKKL [LKKL (8), LKKL LKKL LKKL LKKL LKKL LKKL LKKL LKKL] | 4 ppm | 8 ppm | >500 ppm | 125 ppm |  | 37 µg/mL | 62 to 125 µg/mL | 61 µg/mL | 125 µg/mL | 80 µg/mL | >250 µg/mL | 179 µg/mL | 250 to 500 µg/mL | 56 µg/mL | 62 to 125 µg/mL | 8 µg/mL | 100% | 0.1% | 23 µg/mL
LKLKLKLKLKLKLKLKLK [LK (9), LK LK LK LK LK LK LK LK LK] | 8 ppm | 8 ppm | 16 ppm | 4 ppm |  | 35 µg/mL | 62 to 125 µg/mL | 74 µg/mL | 80 µg/mL | 50 µg/mL | 250 to 500 µg/mL | 216 µg/mL | 250 to 500 µg/mL | 4.9 µg/mL | 32 to 62 µg/mL | > 500 µg/mL | 21% | 46.0% | 137 µg/mL

Reference: patent US7091185B2, “Periodic antimicrobial peptides” (Dow Global Technologies Inc., priority 2003, dated 2006)
